Source: PMC5673977, “Transport Deficiency Is the Molecular Basis of Candida albicans Resistance to Antifungal Oligopeptides” (Frontiers in Microbiology, 2017)
Converted amounts (≈) assume the structure as drawn. Read-outs that look alike come from different tables or passages of the source. Where a SMILES comes first, the peptide text is derived from it. [ ]: non-standard residue; d: D form. The star is where a group is joined. Fumaryl(OMe) = COC(=O)/C=C/C(=O)*; Dap = NC[C@H](N)C(=O)O

Columns and labels:
Assay type in all cases: cell-based, Candida albicans
C. albicans SC 5314 = assay: Disc diffusion method; conditions: YNB-AS agar, 10 μg of peptide on a disc (10 μL of 1 mg mL^-1), 48 h, 30°C
Method: Candida albicans cells, apparently resistant to FMDP-peptides, were isolated from the individual colonies formed on the surface of YNB-SG agar medium containing FMDP-peptide, 10 μg mL^-1 or within the growth inhibitory zones around the paper discs saturated with 10 μL of the FMDP-peptide solution, 1 mg mL^-1. In both versions, the agar surface was inoculated with 10^5 cells from the overnight culture in YPD medium, washed three times with sterile water, suspended in 0.2 mL of sterile water and the cell suspension was spread on the whole surface with a sterile glass rod. Plates were incubated for 48 h at 30°C and isolated colonies were picked with a platinum loop.
Growth inhibitory activity of FMDP-oligopeptides against C. albicans SC 5314 was also determined by the disc diffusion method. […] Cells grown in these colonies were collected, re-grown in YNB-AS and tested for sensitivity to FMDP-oligopeptides.
FIGURE 3 Disc diffusion activity determination of FMDP-oligopeptides. YNB-AS agar medium, 10 μg of each peptide applied on a disc. (A) F2; (B) F3; (C) F6; (D) F7; (E) F11.

C. albicans opt2Δ opt3Δ = conditions: turbidity 531 nm, at least 80% decrease
Method: (§1) Strains were grown at 30°C in YPD medium (1% yeast extract, 2% peptone, and 2% glucose) and stored on YPD plates containing 2% agar. Susceptibility testing was performed in YPD and other three media: (a) RPMI-1640 w/o sodium bicarbonate, with L-glutamine + 2% glucose + 3.45% MOPS, pH adjusted to 7.0; (b) YNB-AS—Yeast Nitrogen Base w/o amino acids (contains ammonium sulfate 5 g L^-1) + 2% glucose; (c) YNB-SG—Yeast Nitrogen Base w/o amino acids and ammonium sulfate + 2% glucose + 0.2 g L^-1 sodium glutamate. In their solid version, used for the mutant generation and isolation, YNB-AS and YNB-SG contained 2% agar.
(§2) The in vitro growth inhibitory activity of antifungals was quantified by determination of minimal inhibitory concentration (MIC) values by the serial twofold dilution method, using the 96-well microtiter plates in three media: buffered RPMI-1640, YNB-AS, and YNB-SG. Conditions of the RPMI-1640-based assay were the same as outlined in the CLSI recommendations ([Clinical Laboratory Standards Institute, 2008]), except for the end-point readout that was done by spectrophotometric determination of cell density at 531 nm. Turbidity in individual wells was measured with a microplate reader (Victor^3; Perkin Elmer). MIC was defined as the lowest drug concentration that gave at least an 80% decrease in turbidity, relative to that of the drug-free growth control.
(§3) The 96-well microtiter plates were also used for determination of in vitro growth inhibitory activity in YPD and YNB-based media. Individual wells were inoculated with 5 × 10^3 cfu mL^-1 of C. albicans cells from the overnight culture in YPD medium. The inoculated plates were incubated 37°C for 24 h and then turbidity was measured with a microplate reader at 531 nm, as described above for the RPMI-1640-based assay.

C. albicans ptr2Δ ptr22Δ = conditions: turbidity 531 nm, at least 80% decrease
Method: as §1, §2, §3

C. albicans opt5Δ = conditions: turbidity 531 nm, at least 80% decrease
Method: as §1, §2, §3

C. albicans opt1–opt5Δ [1] = conditions: turbidity 531 nm, at least 80% decrease
Method: as §1, §2, §3

[2] = test system: C. albicans opt1–opt5Δ ptr2Δ ptr22Δ; conditions: turbidity 531 nm, at least 80% decrease
Method: as §1, §2, §3

C. albicans opt1Δ = conditions: turbidity 531 nm, at least 80% decrease
Method: as §1, §2, §3

C. albicans SC5314 = conditions: for MIC: SC 5314; for Increase of MICs in presence of Ala-Ala-Ala-Ala: YNB-SG + Ala-Ala-Ala-Ala 1 g L^-1; for Effect of supplementation with Ala-Ala or Ala-Ala-Ala on activity: YNB-based media + Ala-Ala or Ala-Ala-Ala, 1 g L^-1, 'similar effect' = complete elimination of activity as with Bacto Peptone; for MIC in YNB-AS, times higher than in YNB-SG: wild type SC5314
Method: as §1, §2, §3

C. albicans opt4Δ = conditions: turbidity 531 nm, at least 80% decrease
Method: as §1, §2, §3

C. albicans opt1–opt5Δ [3] = assay: Initial peptide uptake rate; conditions: 50 mM potassium phosphate buffer (pH 5.0 or 6.5) + 1% glucose, 30°C, 100 μM peptide, TNBS A420, slope 0- to 10-min
Summary of the method: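 Uptake velocity is the slope over the first 10 min of nanomoles oligopeptide taken up per mg cell dry weight, derived from loss of peptide from the medium. Cells were suspended at A660 ≅ 1.0 in 50 mM potassium phosphate, pH 5.0 or 6.5, with 1% glucose at 30°C and exposed to 100 μM peptide.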

[4] = RPMI-1640 medium, MOPS pH 7.0, CLSI conditions
[5] = RPMI-1640 medium, MOPS pH 7.0, CLSI conditions, turbidity 531 nm, at least 80% decrease
[6] = YNB + L-Gln (0.3 g L^-1) pH 5.0
[7] = YNB + L-Gln (0.3 g L^-1) pH 7.0
[8] = YNB + amino acid mixture (composition as in RPMI-1640)
[9] = YNB-AS medium, 5 × 10^3 cfu mL^-1, 37°C, 24 h, turbidity 531 nm, at least 80% decrease

Row | SMILES | Appearance of growth inhibitory zone (C. albicans SC 5314) | MIC (C. albicans opt2Δ opt3Δ; [4]) [µg/mL] | MIC (C. albicans ptr2Δ ptr22Δ; [4]) [µg/mL] | MIC (C. albicans ptr2Δ ptr22Δ; YNB-AS medium, 37°C, 24 h) [µg/mL] | MIC (C. albicans opt5Δ; [4]) [µg/mL] | MIC (C. albicans opt5Δ; YNB-AS medium, 37°C, 24 h) [µg/mL] | MIC (C. albicans opt1–opt5Δ [1]; [4]) [µg/mL] | MIC (C. albicans opt1–opt5Δ [1]; YNB-AS medium, 37°C, 24 h) [µg/mL] | MIC [2, 4] [µg/mL] | MIC ([2]; YNB-AS medium, 37°C, 24 h) [µg/mL] | MIC (C. albicans opt1Δ; [4]) [µg/mL] | MIC (C. albicans opt1Δ; YNB-AS medium, 37°C, 24 h) [µg/mL] | MIC (C. albicans SC5314; [5]) [µg/mL] | MIC (C. albicans SC5314; [6]) [µg/mL] | MIC (C. albicans SC5314; [7]) [µg/mL] | MIC (C. albicans SC5314; [8]) [µg/mL] | MIC (C. albicans SC5314; [9]) [µg/mL] | MIC (C. albicans SC5314; growth medium YNB-SG (Table 6)) [µg/mL] | Increase of MICs in presence of Ala-Ala-Ala-Ala (C. albicans SC5314) | Effect of supplementation with Ala-Ala or Ala-Ala-Ala on activity (C. albicans SC5314) | further results
1 | COC(=O)/C=C/C(=O)NC[C@H](N)C(=O)N[C@@H](CCCCN)C(=O)N[C@@H](CCCCN)C(=O)N[C@H](C(=O)N[C@H](C(=O)N[C@@H](Cc1ccccc1)C(=O)N[C@@H](Cc1c[nH]c2ccccc12)C(=O)N[C@H](C(=O)N[C@@H](CCCCN)C(=O)N[C@@H](Cc1ccccc1)C(=O)N[C@@H](CCCCN)C(=O)O)C(C)C)C(C)C)C(C)C [Peptide F11, FMDP-Lys-Lys-Val-Val-Phe-Trp-Val-Lys-Phe-Lys] (H-[Dap](Fumaryl(OMe))KKVVFWVKFK-OH; N-terminus assumed) | clear | >128 | >128 | 16 (≈ 10.6 µM) | >128 | 16 (≈ 10.6 µM) | >128 | >128 | >128 | >128 | >128 | 32 (≈ 21.2 µM) | >128 | 16 | >128 | >128 | 16 (≈ 10.6 µM) | 1.0 (≈ 0.664 µM) | 16- to 64 fold | no effect | MIC (C. albicans opt2Δ opt3Δ; YNB-AS medium, 37°C, 24 h): 128 µg/mL (≈ 84.9 µM); Effect of N-acetyl-D-glucosamine supplementation on growth inhibitory activity (C. albicans SC5314; YNB-SG medium + N-acetyl-D-glucosamine, 10 mM): complete elimination of growth inhibitory activity; MIC in YNB-AS, times higher than in YNB-SG (C. albicans SC5314): 8–16 times; MIC (C. albicans opt4Δ; [4]): >128 µg/mL; MIC (C. albicans opt4Δ; YNB-AS medium, 37°C, 24 h): 32 µg/mL (≈ 21.2 µM)
2 | COC(=O)/C=C/C(=O)NC[C@H](N)C(=O)N[C@@H](CCCNC(=N)N)C(=O)N[C@@H](CCCCN)C(=O)N[C@@H](CCCCN)C(=O)N[C@@H](Cc1c[nH]c2ccccc12)C(=O)N[C@@H](Cc1ccccc1)C(=O)N[C@@H](Cc1c[nH]c2ccccc12)C(=O)O [Peptide F7, FMDP-Arg-Lys-Lys-Trp-Phe-Trp] (H-[Dap](Fumaryl(OMe))RKKWFW-OH; N-terminus and C-terminus assumed) | clear | >128 | >128 | 16 (≈ 13.9 µM) | >128 | 32 (≈ 27.9 µM) | >128 | >128 | >128 | >128 | >128 | 32 (≈ 27.9 µM) | >128 | 8.0 | 64 | >128 | 16 (≈ 13.9 µM) | 0.5 (≈ 0.435 µM) | 16- to 64 fold | no effect | Uptake rate ± SD (C. albicans opt1–opt5Δ [3]): 0.32 ± 0.07 nmol min^-1 (mg dry weight)^-1; MIC (C. albicans opt2Δ opt3Δ; YNB-SG medium, 37°C, 24 h): 32 µg/mL (≈ 27.9 µM); MIC (C. albicans ptr2Δ ptr22Δ; YNB-SG medium, 37°C, 24 h): 0.5 µg/mL (≈ 0.435 µM); MIC (C. albicans opt5Δ; YNB-SG medium, 37°C, 24 h): 2 µg/mL (≈ 1.74 µM); MIC (C. albicans opt1–opt5Δ [1]; YNB-SG medium, 37°C, 24 h): 64 µg/mL (≈ 55.7 µM); MIC ([2]; YNB-SG medium, 37°C, 24 h): 64 µg/mL (≈ 55.7 µM); MIC (C. albicans opt1Δ; YNB-SG medium, 37°C, 24 h): 8 µg/mL (≈ 6.97 µM); MIC (C. albicans SC5314; YNB-SG medium, 5 × 10^3 cfu mL^-1, 37°C, 24 h, turbidity 531 nm, at least 80% decrease): 0.5 µg/mL (≈ 0.435 µM); MIC in YNB-AS, times higher than in YNB-SG (C. albicans SC5314): 8–16 times; MIC (C. albicans opt4Δ; [4]): >128 µg/mL; MIC (C. albicans opt4Δ; YNB-AS medium, 37°C, 24 h): 32 µg/mL (≈ 27.9 µM); MIC (C. albicans opt4Δ; YNB-SG medium, 37°C, 24 h): 16 µg/mL (≈ 13.9 µM)
